Laboratory results published in patent US10744135B2, “Use of an active substance in the treatment of melasma” (priority 2016, dated 2020).

Tested on: lesions of telangiectatic melasma
From the text: As is known, the increase in pigmentation occurs to a greater extent during the day, wherein the action of the light is an important causal factor.

In the case of `Brc1c(NC2=NCCN2)ccc2nccnc12` [brimonidine], the “duration of effects in minimising the deterioration brought about by sunlight” value (applied in the morning) is reported as “up to 9 hours”, the “improvement of the lesions of telangiectatic melasma” value (topical, following a period of 30 to 60 minutes from application) is reported as “immediate and obvious improvement” and the “improvement in the hyperpigmentation of the skin of the melasma lesions” value (topical, minutes following application, patient (FIGS. 1-4)) is reported as “effective improvement in the hyperpigmentation”.
